The results in this text go back to US20070231269A1, “Analgesics” (IONIX PHARMACEUTICALS LIMITED, priority 2002, published 2007).

Usually solubility stands for the concentration that dissolves in the medium under given conditions. Low readings indicate a poorly soluble substance, high ones a readily soluble substance.

Each structure is given as a SMILES string.

The nature of the series: Solubility of buprenorphine hydrochloride in pectin solutions (saturated solution, hplc). The conditions noted are these: for solubility: 18 °C, thermodynamic from solid; for Buprenorphine detected: solubility, 20 mg/ml pectin, pH 3-6, 18° C., expressed as buprenorphine free base.

Regarding `CO[C@]12CCC3(C[C@@H]1[C@](C)(O)C(C)(C)C)[C@H]1Cc4ccc(O)c5c4[C@@]3(CCN1CC1CC1)[C@H]2O5` [Buprenorphine, 5α,7α(S)-17-(cyclopropylmethyl)-α-(1,1-dimethylethyl)-4,5-epoxy-18,19-dihydro-3-hydroxy-6-methoxy-α-methyl-6,14-ethenomorphinan-7-methanol], the solubility by setting is: (aqueous with cosolvent or surfactant or cyclodextrin) above 10000 µg/mL; (pH 4.5, aqueous with cosolvent or surfactant or cyclodextrin) below 10000 µg/mL. The Buprenorphine detected result by setting is: (dextrose 0-50 mg/ml) “not affected significantly”; (mannitol 0-50 mg/ml) “not affected significantly”.
